Results as given in publication PMC7265341, “Quantifying CDK inhibitor selectivity in live cells” (Nature Communications, 2020).
Values joined by “and” are separate entries in the source; they are usually repeats but may differ in a detail not shown here. Identical values can stand only once.

What was measured:
[1] = molecular target: T1, CDK9 (HiBiT, endogenous locus) (Homo sapiens, UniProt P50750); assay: Target engagement in HEK293 endogenously edited (CRISPR/Cas9) with HiBiT on CDK9; assay type: binding; parameters: unit not given here
T1 construct: endogenous in cells; host or cells: HEK293 edited by CRISPR/Cas9, transduced with LgBiT BacMam
T1 sequence (P50750 whole entry): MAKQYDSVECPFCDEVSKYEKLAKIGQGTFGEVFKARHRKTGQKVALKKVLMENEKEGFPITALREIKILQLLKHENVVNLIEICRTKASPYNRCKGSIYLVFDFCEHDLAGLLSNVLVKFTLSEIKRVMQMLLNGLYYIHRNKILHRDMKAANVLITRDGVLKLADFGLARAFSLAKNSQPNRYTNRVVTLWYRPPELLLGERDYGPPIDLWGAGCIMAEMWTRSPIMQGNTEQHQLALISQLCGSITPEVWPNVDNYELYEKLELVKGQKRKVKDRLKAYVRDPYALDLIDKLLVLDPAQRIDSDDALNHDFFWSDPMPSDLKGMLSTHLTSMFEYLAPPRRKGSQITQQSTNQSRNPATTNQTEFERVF

[2] = molecular target: CDK2/cyclin A1 (Homo sapiens, UniProt P24941); assay: NanoBRET target engagement, CDK2-NanoLuc co-expressed with cyclin A1 in HEK-293; assay type: binding; conditions: probe 5 0.5µM
[3] = molecular target: CDK6 (Homo sapiens, UniProt Q00534); assay: Intracellular residence time by cellular washout, CDK6; assay type: binding; conditions: Panel B;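 note: NanoBRET cellular washout in live cells: compound preincubated 2 h at 37 °C, then removed, energy transfer probe association tracked over time versus DMSO vehicle, rising BRET indicating target release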
CDK6, sequence (Q00534 whole entry): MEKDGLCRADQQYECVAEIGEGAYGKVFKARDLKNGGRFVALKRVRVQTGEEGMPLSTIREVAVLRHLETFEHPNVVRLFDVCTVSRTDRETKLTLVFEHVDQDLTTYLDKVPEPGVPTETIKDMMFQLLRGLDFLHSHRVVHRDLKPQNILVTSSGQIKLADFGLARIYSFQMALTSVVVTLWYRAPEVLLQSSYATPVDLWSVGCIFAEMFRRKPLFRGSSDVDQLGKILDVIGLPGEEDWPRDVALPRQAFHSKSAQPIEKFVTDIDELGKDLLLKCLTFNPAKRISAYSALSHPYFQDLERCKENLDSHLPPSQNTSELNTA
CDK6, sequence (P24385 whole entry partner): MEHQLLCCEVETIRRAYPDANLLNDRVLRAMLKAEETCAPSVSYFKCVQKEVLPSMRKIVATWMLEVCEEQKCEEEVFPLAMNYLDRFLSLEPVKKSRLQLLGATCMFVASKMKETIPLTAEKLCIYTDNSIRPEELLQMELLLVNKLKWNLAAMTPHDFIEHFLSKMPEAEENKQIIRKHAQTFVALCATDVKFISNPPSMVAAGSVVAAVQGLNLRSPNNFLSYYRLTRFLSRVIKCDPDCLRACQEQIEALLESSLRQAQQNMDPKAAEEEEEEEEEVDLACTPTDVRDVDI

[4] = molecular target: CDK7 (Homo sapiens, UniProt P50613); assay: Intracellular residence time by cellular washout, CDK7; assay type: binding; conditions: for CDK7: Panel B
CDK7, sequence (P50613 whole entry): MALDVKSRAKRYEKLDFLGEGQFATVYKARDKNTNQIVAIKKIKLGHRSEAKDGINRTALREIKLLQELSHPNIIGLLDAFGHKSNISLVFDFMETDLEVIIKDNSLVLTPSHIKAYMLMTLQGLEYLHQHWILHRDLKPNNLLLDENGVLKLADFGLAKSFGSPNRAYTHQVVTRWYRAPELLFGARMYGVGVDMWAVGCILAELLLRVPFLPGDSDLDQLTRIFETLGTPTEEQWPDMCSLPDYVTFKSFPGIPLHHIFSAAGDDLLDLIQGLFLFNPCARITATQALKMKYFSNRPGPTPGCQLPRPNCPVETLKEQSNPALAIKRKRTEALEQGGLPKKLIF
Protocol: However, residence times for this and many of the other CDKi’s in our panel have not been reported in cell-free or cellular contexts. […] This condition was selected to ensure adequate target occupancy prior to compound washout. Residence time was then evaluated by a rapid compound washout procedure, followed by addition of energy transfer probe 1. Under these conditions, the rate of the energy transfer signal increase serves as a direct proxy for the loss of the target-CDKi interaction[18],[56],[57].
Residence time was qualitatively assessed via a cellular washout approach, where delayed energy probe association is used as an indirect measurement for the durability of target/compound engagement. […] After 2 h of incubation at 37 °C, the medium was aspirated from the cells and replaced with fresh OptiMEM containing NanoBRET NanoGlo Substrate and Extracellular NanoLuc Inhibitor. […] Occupancy values were plotted as a function of time.
Supplementary Figure 22. […] Residence […]
time was qualitatively assessed by cellular washout as described in the method details and compared to association of energy transfer probe in cells treated with DMSO vehicle. […]
engagement at CDK6 and kinetic selectivity for CDK6 compared to CDK2 and CDK7. BRET ratios were normalized between the maximum BRET value vs BRET value in the absence of tracer. Kinetic traces and individual points are mean of 3 independent experiments ± S.E.M (n = 3). Source data are provided as a […]

[5] = molecular target: CDK19/Cyclin C (Homo sapiens, UniProt Q9BWU1); assay: cell-based
CDK19/Cyclin C, sequence (Q9BWU1 whole entry): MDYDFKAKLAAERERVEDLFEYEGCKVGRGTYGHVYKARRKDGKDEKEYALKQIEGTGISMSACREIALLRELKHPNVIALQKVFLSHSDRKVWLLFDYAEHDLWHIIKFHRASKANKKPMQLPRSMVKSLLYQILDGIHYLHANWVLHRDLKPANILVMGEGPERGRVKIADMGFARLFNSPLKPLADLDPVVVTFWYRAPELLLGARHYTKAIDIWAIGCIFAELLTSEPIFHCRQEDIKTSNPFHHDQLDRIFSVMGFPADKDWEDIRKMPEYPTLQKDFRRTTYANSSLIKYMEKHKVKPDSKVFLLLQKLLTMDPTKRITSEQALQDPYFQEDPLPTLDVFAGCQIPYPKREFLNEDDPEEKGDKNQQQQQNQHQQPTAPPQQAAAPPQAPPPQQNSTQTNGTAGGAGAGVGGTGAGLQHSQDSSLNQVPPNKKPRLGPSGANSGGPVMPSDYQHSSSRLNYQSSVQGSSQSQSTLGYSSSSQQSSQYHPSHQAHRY
CDK19/Cyclin C, sequence (P24863 whole entry partner): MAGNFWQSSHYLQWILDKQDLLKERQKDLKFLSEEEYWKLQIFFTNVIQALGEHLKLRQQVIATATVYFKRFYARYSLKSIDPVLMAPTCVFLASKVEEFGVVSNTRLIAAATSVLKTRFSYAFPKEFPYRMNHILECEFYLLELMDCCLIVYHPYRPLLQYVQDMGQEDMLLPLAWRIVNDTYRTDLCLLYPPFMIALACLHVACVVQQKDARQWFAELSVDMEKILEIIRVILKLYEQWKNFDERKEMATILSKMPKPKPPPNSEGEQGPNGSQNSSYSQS

[6] = Time (Min) 32.9743, listed as RGB-286638
[7] = Time (Min) 266.996, listed as RGB-286638

COc1cc(F)ccc1-c1cc(Nc2cc(CS(C)(=N)=O)ccn2)ncc1F (stereo not drawn) [BAY-1251152]
CDK9 Occupancy Data, CRISPR/HiBiT ([1]; LOG10([BAY-1251152]) (LOG10(µM)) 0.045757): 108.918 and 104.91 | CDK9 Occupancy Data, CRISPR/HiBiT ([1]; LOG10([BAY-1251152]) (LOG10(µM)) 0.522879): 117.335 and 92.6854 | CDK9 Occupancy Data, CRISPR/HiBiT ([1]; LOG10([BAY-1251152]) (LOG10(µM)) 1): 97.495 and 102.505 | CDK9 Occupancy Data, CRISPR/HiBiT ([1]; LOG10([BAY-1251152]) (LOG10(µM)) -0.43136): 105.11 and 102.705 | CDK9 Occupancy Data, CRISPR/HiBiT ([1]; LOG10([BAY-1251152]) (LOG10(µM)) -0.90849): 108.717 and 93.6874 | CDK9 Occupancy Data, CRISPR/HiBiT ([1]; LOG10([BAY-1251152]) (LOG10(µM)) -1.38561): 87.2745 and 99.499 | CDK9 Occupancy Data, CRISPR/HiBiT ([1]; LOG10([BAY-1251152]) (LOG10(µM)) -1.86273): 72.6453 and 62.8257 | CDK9 Occupancy Data, CRISPR/HiBiT ([1]; LOG10([BAY-1251152]) (LOG10(µM)) -2.33985): 30.9619 and 31.9639

COCCN1CCN(Cc2ccc(-c3n[nH]c4c3C(=O)c3c(NC(=O)NN5CCOCC5)cccc3-4)cc2)CC1 [RGB286638]
increase of CDK2 engagement potency with cyclin E1 compared with cyclin A1 co-expression [2]: ~2 orders of magnitude | CDK6 occupancy (%) over time after compound washout ([3]; Time (Min) 0): 82.1951 and 85.1351 and 80.5402 | CDK6 occupancy (%) over time after compound washout ([3]; Time (Min) 2.97013): 79.5935 and 83.3333 and 77.8966 | CDK6 occupancy (%) over time after compound washout ([3]; Time (Min) 5.97045): 77.3984 and 80.6306 and 74.3678 | CDK6 occupancy (%) over time after compound washout ([3]; Time (Min) 8.97078): 75.7724 and 78.2883 and 76.8161 | CDK6 occupancy (%) over time after compound washout ([3]; Time (Min) 11.9714): 73.9024 and 76.5766 and 70.3448 | CDK6 occupancy (%) over time after compound washout ([3]; Time (Min) 14.9718): 72.7642 and 74.3243 and 69.1954 | CDK6 occupancy (%) over time after compound washout ([3]; Time (Min) 17.9723): 71.5447 and 72.4324 and 67.4713 | CDK6 occupancy (%) over time after compound washout ([3]; Time (Min) 20.9723): 70.4878 and 71.2613 and 68.046 | CDK6 occupancy (%) over time after compound washout ([3]; Time (Min) 23.9731): 69.0244 and 70.3604 and 68.6207 | CDK6 occupancy (%) over time after compound washout ([3]; Time (Min) 26.9737): 68.8618 and 68.5586 and 67.4713 | CDK6 occupancy (%) over time after compound washout ([3]; Time (Min) 29.9742): 67.3171 and 67.8378 and 66.8966 | CDK6 occupancy (%) over time after compound washout [3, 6]: 67.6423 and 66.9369 and 67.1264 | CDK6 occupancy (%) over time after compound washout ([3]; Time (Min) 35.9749): 67.2358 and 66.5766 and 66.0919 | CDK6 occupancy (%) over time after compound washout ([3]; Time (Min) 38.9753): 66.8293 | CDK6 occupancy (%) over time after compound washout ([3]; Time (Min) 236.996): 66.1789 and 64.7748 and 56.7816 | CDK6 occupancy (%) over time after compound washout ([3]; Time (Min) 239.996): 65.6911 and 64.3243 and 56.5517 | CDK6 occupancy (%) over time after compound washout ([3]; Time (Min) 242.996): 66.4228 and 63.0631 and 56.3218 | CDK6 occupancy (%) over time after compound washout ([3]; Time (Min) 245.996): 65.6911 and 63.5135 and 59.5402 | CDK6 occupancy (%) over time after compound washout ([3]; Time (Min) 248.996): 65.6911 and 63.0631 and 59.5402 | CDK6 occupancy (%) over time after compound washout ([3]; Time (Min) 251.996): 65.7724 and 63.1531 and 61.6092 | CDK6 occupancy (%) over time after compound washout ([3]; Time (Min) 254.996): 65.8537 and 64.3243 and 54.7126 | CDK6 occupancy (%) over time after compound washout ([3]; Time (Min) 257.996): 64.9594 and 63.3333 and 57.7011 | CDK6 occupancy (%) over time after compound washout ([3]; Time (Min) 260.996): 65.1219 and 63.8739 and 51.954 | CDK6 occupancy (%) over time after compound washout ([3]; Time (Min) 263.996): 63.9024 and 63.4234 and 57.1264 | CDK6 occupancy (%) over time after compound washout [3, 7]: 65.5285 and 63.1531 and 57.4713 | CDK6 occupancy (%) over time after compound washout ([3]; Time (Min) 269.996): 64.7968 and 62.5225 and 59.6552 | CDK6 occupancy (%) over time after compound washout ([3]; Time (Min) 272.996): 65.8537 and 62.5225 and 60.3448 | CDK6 occupancy (%) over time after compound washout ([3]; Time (Min) 275.996): 64.3902 and 62.0721 and 53.3333 | CDK6 occupancy (%) over time after compound washout ([3]; Time (Min) 278.996): 65.2032 and 62.6126 and 63.7931 | CDK6 occupancy (%) over time after compound washout ([3]; Time (Min) 281.996): 64.8781 and 62.0721 and 57.7011 | CDK6 occupancy (%) over time after compound washout ([3]; Time (Min) 284.996): 65.7724 and 63.3333 and 62.8736 | CDK6 occupancy (%) over time after compound washout ([3]; Time (Min) 287.996): 63.5772 and 62.5225 and 61.3793 | CDK6 occupancy (%) over time after compound washout ([3]; Time (Min) 290.996): 62.6016 and 62.5225 and 59.8851 | CDK6 occupancy (%) over time after compound washout ([3]; Time (Min) 293.996): 64.5529 and 62.8829 and 61.8391 | CDK7 ([4]; Time (Min) 2.97013): 63.5317 and 37.2109 and 59.6726 | CDK7 ([4]; Time (Min) 5.97045): 70.1207 and 47.8912 and 70.0893 | CDK7 ([4]; Time (Min) 8.97078): 76.2242 and 55.3742 and 82.1429 | CDK7 ([4]; Time (Min) 11.9714): 80.0388 and 60.068 and 80.8036 | CDK7 ([4]; Time (Min) 14.9718): 83.1599 and 63.8775 and 88.244 | CDK7 ([4]; Time (Min) 17.9723): 84.339 and 67.0068 and 93.006 | CDK7 ([4]; Time (Min) 20.9723): 86.0036 and 69.5238 and 91.8155 | CDK7 ([4]; Time (Min) 23.9731): 87.5988 and 70.4762 and 91.0714 | CDK7 ([4]; Time (Min) 26.9737): 87.252 and 72.2449 and 92.2619 | CDK7 ([4]; Time (Min) 29.9742): 89.6796 and 72.7211 and 93.4524 | CDK7 ([4]; Time (Min) 32.9743): 74.1497 | CDK7 [4, 6]: 87.9456 and 99.1071 | CDK7 ([4]; Time (Min) 35.9749): 89.8183 and 75.5102 and 100.298 | CDK7 ([4]; Time (Min) 38.9753): 90.3731 and 75.102 and 97.619 | CDK7 ([4]; Time (Min) 41.9753): 91.4829 | CDK7 ([4]; Time (Min) 236.996): 85.5181 and 68.5714 and 62.6488 | CDK7 ([4]; Time (Min) 239.996): 81.0792 and 69.4558 and 75.1488 | CDK7 ([4]; Time (Min) 242.996): 82.6744 and 69.7959 and 76.3393 | CDK7 ([4]; Time (Min) 245.996): 82.397 and 69.0476 and 68.4524 | CDK7 ([4]; Time (Min) 248.996): 81.4954 and 70.068 and 77.0833 | CDK7 ([4]; Time (Min) 251.996): 82.3276 and 68.6395 and 82.7381 | CDK7 ([4]; Time (Min) 254.996): 80.5243 and 67.551 and 74.1071 | CDK7 ([4]; Time (Min) 257.996): 85.2407 and 70.4082 and 62.2024 | CDK7 ([4]; Time (Min) 260.996): 83.0212 and 68.0272 and 80.6548 | CDK7 ([4]; Time (Min) 263.996): 83.8535 and 68.6395 and 70.6845 | CDK7 ([4]; Time (Min) 266.996): 68.0272 | CDK7 [4, 7]: 83.7842 and 91.369 | CDK7 ([4]; Time (Min) 269.996): 81.2873 and 68.9116 and 72.9167 | CDK7 ([4]; Time (Min) 272.996): 80.8711 and 70.3401 and 74.8512 | CDK7 ([4]; Time (Min) 275.996): 78.9985 and 67.0748 and 80.0595 | CDK7 ([4]; Time (Min) 278.996): 80.5243 and 67.8231 and 80.6548 | CDK7 ([4]; Time (Min) 281.996): 80.1776 and 69.4558 and 75 | CDK7 ([4]; Time (Min) 284.996): 78.513 and 68.5034 and 75.2976 | CDK7 ([4]; Time (Min) 287.996): 79.8308 and 68.2993 and 76.6369 | CDK7 ([4]; Time (Min) 290.996): 80.5243 and 69.932 and 91.2202 | CDK7 ([4]; Time (Min) 293.996): 78.9985 and 67.9592 and 82.2917 | CDK7 occupancy after 2 h of analysis following compound washout ([4]; live cells, probe 1 at 1 µM): fully dissociated

CCN1CCN(Cc2ccc(NC(=O)Nc3ccc(Oc4cc(NC)ncn4)cc3)cc2C(F)(F)F)CC1 [AST-487]
IC50 [5]: 5.9 nM
